Data published in ChEMBL document CHEMBL1177693, “Antimalarials from nature” (Bioorg Med Chem, 2009).
Converted amounts (≈) assume the structure as drawn.

The compounds below were run on Plasmodium falciparum (assay: Antimalarial activity against chloroquine-resistant Plasmodium falciparum Dd2). Conditions: not given.
Format: functional, organism-based

Compound	IC50 [µg/mL]
COc1ccc(-c2cc(=O)oc3c(OC)c(OC)cc(OC)c23)cc1	3.6 (≈ 10.5 µM)
C=C1C(=O)O[C@H]2[C@H]1[C@@H](OC(C)=O)CC(=C)[C@]1(O)CC=C(C)[C@H]21	10.8 (≈ 35.5 µM)

Each compound was assayed on Plasmodium falciparum (assay: Antimalarial activity against Plasmodium falciparum). Conditions: Plasmodium falciparum.
Format: functional, organism-based

Compound	MIC [µM]	IC50	EC50 [µg/mL]
C=C(C)[C@@H]1CC[C@]2(C)CC[C@]3(C)[C@H](CC[C@@H]4[C@@]5(C)CC[C@H](O)C(C)(C)[C@@H]5CC[C@]43C)[C@@H]12 [LUPEOL]	13.1 (≈ 5.58 µg/mL)		
C=C(C)C(=O)O[C@H]1C[C@H](C)C2=CC(=O)[C@](C)(/C=C3/OC(=O)C(COC(C)=O)=C31)O2		1.8 µg/mL	
C=C1C(=O)[C@@]23CC[C@H]4[C@@]5(C)CCC[C@@]4(OC5=O)[C@@]2(C)CC[C@@H]1C3		1.57 µg/mL	
CC[C@H](C)[C@@H]([C@@H](CC(=O)N1CCC[C@H]1[C@H](OC)[C@@H](C)C(=O)N[C@@H](Cc1ccccc1)c1nccs1)OC)N(C)C(=O)[C@@H](NC(=O)[C@H](C(C)C)N(C)C)C(C)C [DOLASTATIN-10]		0.0001 µM	
CC1=CC(=O)c2c(O)cccc2C1=O [PLUMBAGIN]		0.27 µM	
NC[C@H](Cl)[C@@H](O)c1c[nH]c(N)n1 [GIRACODAZOLE]		0.077 µM	
C/C(=C\[C@@H](O)[C@H](O)[C@@H](C)C1=CC[C@@]2(C)C[C@@H]3[C@H](C)CC[C@@H]3/C(C(=O)O)=C\C[C@H]12)C(=O)O [HALOROSELLINIC ACID]		13 µg/mL	
C=C[C@@]12COC(=O)C(=C)[C@@H]1[C@@H](O)[C@H](C(=C)C(=O)OC)[C@@H](OC(=O)C(=C)CO)C2 [VERNODALOL]		4.8 µg/mL	
COc1cc2c(cc1OC)[C@@H]1C[C@H](C[C@H]3CCCCN31)OC(=O)/C=C\c1ccc(O)c-2c1 [VERTINE]		4.76 µg/mL	
C/C=C(\C)C(=O)O[C@@H]1[C@H]2C(C)=CC(=O)[C@@H](O)[C@]2(C)[C@H]2[C@]3(O)OC[C@@]24[C@@H]1OC(=O)C[C@H]4[C@@H](C)[C@H]3O		0.061 µg/mL	
CCCCCCCCCCCCCCCC1CC(=O)NCCCNCCCCNCCCN1 (stereo unspecified) [BUDMUNCHIAMINE L5]		15 µM	
C[C@@]12C=CC(=O)[C@@]3(C)[C@H]1[C@@H](OC2)[C@@H](OC(=O)c1ccccc1)[C@@]1(C)C2=CC[C@@H](C4=CC(O)OC4=O)[C@]2(C)C[C@@H]2O[C@]231 (mixture of isomers) [TRICHIRUBINE B]		0.2 µg/mL	
C=C(C)C(O)Cc1cc(C(=O)/C=C/c2ccc(O)c(CC=C(C)C)c2)c(O)cc1O (stereo unspecified) [BARTERICIN A]		2.15 µM	
C=C1C2CC[C@@]3(C)[C@H](c4ccoc4)OC(=O)C[C@]13O[C@H]1CC(=O)C(C)(C)[C@H](CC(=O)OC)[C@@]21C		5.9 µg/mL	
Cc1c(O)cc2c3c1OC(C)(C)CC3c1ccc(O)c(O)c1CC2 (stereo not drawn) [DEMETHYLRACEMOSOL]			2 (≈ 6.13 µM)
C=C1C(=O)O[C@@H]2C[C@@H](C)/C=C\C(=O)[C@@](C)(O)[C@H](OC(C)=O)[C@@H](OC(=O)CC(C)C)[C@@H]12 [NEUROLENIN B]		0.62 µM	
C=C(C)C(=O)O[C@@H]1C[C@@]2(C)OC(=CC2=O)/C(CO)=C\[C@H]2OC(=O)C(=C)[C@@H]21		1.2 µg/mL	
C[C@@]12C=C3OC[C@]4(C)C=CC(=O)[C@@](C)([C@@H]34)[C@@]13O[C@H]3C[C@@]1(C)[C@H](C3=CC(O)OC3=O)C[C@H]3O[C@@]321 (mixture of isomers) [TRICHIRUBINE A]		0.3 µg/mL	
COc1cc2c(=O)c3c(O)c(C/C=C(\C)CCC=C(C)C)c(O)cc3oc2cc1O [COWAXANTHONE]		1.5 µg/mL	
CC1=CC(=O)C[C@@H]2[C@@](C)(CC[C@H](C)CC(=O)O)[C@H](C)C(=O)C[C@@]12C		4.3 µg/mL	
C=C1C([C@@]2(C)C=CC(=O)C(C)(C)[C@@H]2[C@H](O)C(=O)OC)CC[C@@]2(C)[C@H](c3ccoc3)OC(=O)C[C@]12O (stereo partly specified) [DOMESTICULIDE A]		> 20 µg/mL	
CC(C)=CCc1cc(/C=C/C(=O)c2cc(CC=C(C)C)c(O)cc2O)ccc1O [STIPULIN]		5.13 µM	
COC(=O)/C(=C/C[C@H]1[C@@]2(CC[C@H]3C(C)(C)CCC[C@@]31C)CO2)C1CO1 (stereo partly specified)		4.97 µM	

Compound	MIC [µM]	IC50	EC50 [µg/mL]
C=C1C(=O)O[C@@H]2C[C@@H](C)[C@@H]3C=CC(=O)[C@@]3(C)[C@@H](O)[C@H]12 [HELENALIN]		0.23 µM	
COc1cc(O)c(C(=O)CCc2ccccc2)c(O)c1[C@H]1C=C(C)CC[C@@H]1C(C)C		5.64 µM	
C=C1C([C@@]2(C)C=CC(=O)C(C)(C)[C@@H]2[C@H](OC(C)=O)C(=O)OC)CC[C@@]2(C)[C@H](c3ccoc3)OC(=O)C[C@]12O (stereo partly specified) [DOMESTICULIDE B]		3.2 µg/mL	
COc1ccc2c(c1O)CCc1cc(O)c(C)c3c1C2CC(C)(C)O3 (stereo not drawn) [RACEMOSOL]			0.9 (≈ 2.64 µM)
C=C1C2CC[C@@]3(C)[C@H](c4ccoc4)OC(=O)C[C@]13O[C@H]1CC(=O)C(C)(C)[C@H](C(O)C(=O)OC)[C@@]21C (stereo partly specified) [6-HYDROXYANGOLENSIC ACID METHYL ESTER]		> 20 µg/mL	
CC1(C)CC[C@]2(C(=O)O)CC[C@]3(C)C(=CC[C@@H]4[C@@]5(C)CC[C@@H](O)C(C)(C)[C@@H]5CC[C@]43C)[C@@H]2C1		28.3 µM	
O=C1O[C@@H]2[C@@H](OC(=O)c3cc(O)c(O)c(O)c3-c3c1cc(O)c(O)c3O)[C@H](O)O[C@@H]1COC(=O)c3cc(O)c(O)c(O)c3-c3c(O)c(O)c4oc(=O)c5c(c(O)c(O)c6oc(=O)c3c4c65)-c3c(cc(O)c(O)c3O)C(=O)O[C@@H]21 (racemic) [PUNICALAGIN]		27.7 µg/mL	
C[C@@H]1CC[C@H]2C(C)(C)[C@H](O)CC[C@]2(C)[C@@]12Cc1c(O)cc(C=O)c(C=O)c1O2		0.85 µg/mL	
C=CC(C)(C)c1c2c(c(OC)c3ccc(=O)oc13)C=CC(C)(C)O2 [DENTATIN]		8.5 µg/mL	
CC1(C)C(=O)CC[C@]2(C)[C@H]3CC(O)[C@@H]4[C@@]5(C)CC[C@](O)(C(C)(C)O)[C@H]5[C@@H](O[C@H]5OC[C@@H](O)[C@@H](O)[C@@H]5O)C[C@@]4(C)[C@]3(C)CC[C@@H]12 (mixture of isomers) [GLINOSIDE A]		42.3 µg/mL	
COc1c2c(cc(O)c1-c1cc(-c3ccc4c(-c5c(O)cc(O)c6c5C[C@@H](C)N[C@@H]6C)c(C)cc(OC)c4c3O)c(O)c3c(OC)cc(C)cc13)C[C@@H](C)N=C2C [KORUNDAMINE A]		1.1 µg/mL	
C=C1C(=O)O[C@@H]2/C=C(/C)C3=CC(=O)[C@](C)(O3)[C@H](O)[C@@H](OC(=O)CC(C)C)[C@@H]12 [LOBATIN B]		16.5 µM	
C/C=C(/CO[C@H]1O[C@@H](CO)[C@H](O)[C@@H](O)[C@@H]1O)c1cc2n(c(=O)c1CO)CCc1c-2[nH]c2ccccc12 [NAUCLEOFFICINE A]		9.7 µM	
O=C1c2ccc(O)cc2O[C@H](c2ccc(O)cc2)[C@H]1[C@@H]1C(=O)c2ccc(O)cc2O[C@H]1c1ccc(O)cc1		6.7 µM	
C[C@@H]1CC[C@H]2C(C)(C)[C@H](O)CC[C@]2(C)[C@@]12Cc1c(O)cc3c(c1O2)COC3=O		0.15 µg/mL	
COc1cc2c(cc1O)CCN(C)[C@H]2Cc1ccc(Oc2c3c(cc(OC)c2OC)-c2c(OC)c(OC)c(O)c4c2[C@@H](C3)N(C)CC4)cc1		0.0242 µg/mL	
COc1cc2c(cc1O)[C@@H]1C[C@H](C[C@H]3CCCCN31)OC(=O)/C=C\c1ccc(O)c-2c1		2.8 µg/mL	
CO[C@H]1[C@@H](O)[C@H](O[C@H]2[C@@H](OC)C[C@H](O[C@H]3[C@@H](OC)C[C@@H](O[C@H]4CC[C@@]5(C)C(=CC[C@@H]6[C@@H]5C[C@@H](OC(=O)c5ccccc5)[C@]5(C)[C@@H]([C@H](C)OC(C)=O)CC[C@]65O)C4)O[C@@H]3C)O[C@@H]2C)O[C@H](C)[C@H]1O		6.25 µg/mL	
COc1ccc2c(OC)c3c(C)cc(=O)[nH]c3c(OC)c2c1OC		42.9 µM	
O=C1OC(O)C(Cl)=C1Cl (stereo unspecified) [MUCOCHLORIC ACID]		0.137 µg/mL	
Cc1cc(O)c2c(c1)[C@H]([C@H]1O[C@H](OC(=O)c3ccccc3)[C@@H](O)[C@@H](O)[C@@H]1O)c1cccc(O)c1C2=O [UVEOSIDE]		2.4 µM	
C=C1CC[C@@H]2[C@@](C)(COC(=O)/C=C/c3ccc(O)cc3)CCC[C@@]2(C)[C@@H]1CC[C@H](C)CC(=O)O		4.3 µg/mL	
CC1=CC(=O)[C@@H](O)[C@]2(C)[C@H]3[C@]4(O)OC[C@@]35[C@@H](C[C@@H]12)OC(=O)[C@H](O)[C@@]5(O)[C@@]1(CO1)[C@H]4O [PASAKBUMIN B]		0.0226 µg/mL	

The compounds below were run on Plasmodium falciparum (assay: Antimalarial activity against Plasmodium falciparum K1). Conditions: not given.
Format: functional, organism-based

Compound	IC50	EC50 [µg/mL]
COc1c(OCCCN(C)C)cc2oc3cc(O)c(CC=C(C)C)c(O)c3c(=O)c2c1CC=C(C)C	< 1 µM	
COC(=O)C[C@H]1[C@]2(C)C3=C(C)[C@H](c4ccoc4)C[C@H]3O[C@@H]2[C@@H]2OC(=O)[C@]3(C)C=CC(=O)[C@@]1(C)[C@@H]23 [NIMBOLIDE]		0.00095 (≈ 0.00204 µM)
COc1ccc2c3c1O[C@H]1C[C@@H](O)C=C[C@@]31CCN(C)C2 [GALANTAMINE]	4.38 µg/mL	
CCN(CC)CC(O)COc1cc2oc3cc(O)c(CC=C(C)C)c(O)c3c(=O)c2c(CC=C(C)C)c1OC (stereo unspecified)	< 1 µM	
CO[C@@H]1C=C[C@@]23c4cc5c(cc4CO[C@]2(O)CN(C)[C@H]3C1)OCO5 [TAZETTINE]	5.42 µg/mL	
CCN(CC)CCOc1cc2oc3cc(O)c(CC=C(C)C)c(O)c3c(=O)c2c(CC=C(C)C)c1OC	< 1 µM	
CC[C@H](C)[C@H]1OC(=O)[C@H](Cc2ccccc2)N(C)C(=O)[C@@H](C(C)C)OC(=O)[C@H](Cc2ccccc2)N(C)C(=O)[C@@H](C(C)C)OC(=O)[C@H](Cc2ccccc2)N(C)C1=O [BEAUVERICIN A]		12 (≈ 15 µM)
C[C@H]1C/C=C/[C@@H](O)[C@@H](O)CC/C=C/c2cc(O)cc(O)c2C(=O)O1 [AIGIALOMYCIN D]	6.6 µg/mL	
CC(C)[C@@H]1OC(=O)[C@@H](Cc2ccccc2)N(C)C(=O)[C@H](C(C)C)OC(=O)[C@@H](Cc2ccccc2)N(C)C(=O)[C@H](C(C)C)OC(=O)[C@@H](Cc2ccccc2)N(C)C1=O [BEAUVERICIN]		1.6 (≈ 2.04 µM)

Each compound was assayed on Plasmodium falciparum (assay: Antimalarial activity against Plasmodium falciparum W2). Conditions: not given.
Format: functional, organism-based

Compound	IC50 [µM]
CN1CCc2cc3c(c4c2c1cc1ccccc14)OCO3 [DEHYDROROEMERINE]	0.36
COc1ccc2cc1Oc1ccc(cc1)C[C@H]1c3c(cc4c(c3Oc3cc5c(cc3OC)CCN(C)[C@@H]5C2)OCO4)CCN1C [CEPHARANTHINE]	0.61
COc1cc2c(cc1OC)[C@@H]1Cc3ccc(OC)c(OC)c3CN1CC2 [TETRAHYDROPALMATINE]	32.6
COc1cc2c(cc1OC)CN1CCc3cc(OC)c(OC)cc3[C@@H]1C2 [XYLOPININE]	52.3
